Patent US11857604B2, “Nanovectors and uses” (NH THERAGUIX, priority 2017, dated 2024)

Experiment: physisorption of active substance on nanoparticles: tangential filtration (3 kDa Vivaspin), subnatant analysed by UV-visible/fluorescence
Format: physicochemical
Conditions: for concentration up to which retention of the active substance is observed (minimum) / load content by weight: AGuIX® at 100 mM [Gd3+] = 100 g/l of nanoparticles
Procedure: During the various examples, the maximum drug load content on polysiloxane nanoparticles was determined, when said particles are present at a concentration corresponding to a concentration used during clinical trials for the nanoparticle in question. Increasing concentrations of active substances were thus brought into contact with the nanoparticles. Solutions are purified by tangential filtration. The molecules which have not be able to adsorb to the surface of the nanoparticles pass through the membrane and are found in the subnatant, where they can be detected by spectroscopic techniques such as UV/Visible absorption or else fluorescence spectroscopy (FIG. 2).
This solution is placed in a 3 kDa Vivaspin®, and a tangential filtration cycle is carried out in order to obtain a supernatant of 200 μl. The subnatant is analysed by UV-visible analysis. The supernatant is diluted 50-fold and is analysed by UV-visible analysis.
This solution is placed in a 3 kDa Vivaspin®, and a tangential filtration cycle is carried out so as to obtain a supernatant of 200 μl. The subnatant is analysed by UV-visible analysis and fluorometry after 20-fold dilution.
This solution is placed in a 3 kDa Vivaspin®, and a tangential filtration cycle is carried out so as to obtain a supernatant of 160 μl. The subnatant is analysed by UV-visible analysis. The cisplatin is detectable by UV/VIS absorption at a wavelength of 706 nm after reaction with ODPA. For the reaction with cisplatin, a solution of ODPA at 1.4 mg/ml and a phosphate buffer (pH 6.8) are prepared. The subnatant is diluted 5-fold. 140 μl of this solution are added to 200 μl of buffer and 100 μl of ODPA. The resulting solution is heated at 100° C. for 15 min. Once the reaction is finished and the temperature has returned to ambient temperature, 560 μl of DMF are added. The final solution is filtered and then analysed by UV-visible analysis.

Compound | limiting concentration up to which cisplatin adsorbs at the surface of the nanoparticles (AGuIX® 100 mM, absorption at 706 nm of ODPA-treated subnatants (FIG. 16)) | concentration up to which retention of the active substance is observed (minimum) | load content by weight | limiting concentration up to which the peptide adsorbs at the surface of the nanoparticles (AGuIX® 100 mM, absorption at 280 nm of subnatants (FIG. 12))
N.N.[Cl][Pt][Cl] [cisplatin] | approximately 240 mg·L^−1 | ≥ 240 µg/mL | greater than 2.4 mg/g of nanoparticles | –
COc1cccc2c1C(=O)c1c(O)c3c(c(O)c1C2=O)C[C@@](O)(C(=O)CO)C[C@@H]3O[C@H]1C[C@H](N)[C@H](O)[C@H](C)O1 [doxorubicin] | – | ≥ 112 µg/mL | greater than 1.12 mg/g of nanoparticles | –
tyr3-octreotate [TATE peptide] | – | ≥ 2000 µg/mL | greater than 20 mg/g of nanoparticles | approximately 2 g·L^1
